Test results taken from the CheMixHub ionic liquid set.

Assay: xn = mol fraction of the nth substance listed

CCCCCCCC[n+]1ccc2ccccc2c1.O=S(=O)([N-]S(=O)(=O)C(F)(F)F)C(F)(F)F + Cc1ccccc1
101 kPa
Conditions	viscosity [mPa·s]
298.15 K, x2 = 0.0818	308
298.15 K, x2 = 0.4775	50.6
298.15 K, x2 = 0.4902	48.5
308.15 K, x2 = 0.0818	162.6
308.15 K, x2 = 0.2746	81.6
308.15 K, x2 = 0.4295	41.74
308.15 K, x2 = 0.4775	32.56
318.15 K, x2 = 0.1949	67
318.15 K, x2 = 0.6148	11.19
318.15 K, x2 = 0.8672	2.19
328.15 K, x2 = 0.3638	25.85
328.15 K, x2 = 0.4295	19.34
328.15 K, x2 = 0.5467	12.11
328.15 K, x2 = 0.7004	5.51
338.15 K, x2 = 0	44.8
338.15 K, x2 = 0.4775	11.71

CC[n+]1ccn(C)c1.O=S(=O)([O-])C(F)(F)F + F[B-](F)(F)F.[Li+]
101 kPa, x1 = 1
Conditions	electrical conductivity [S/m]
288.15 K	0.605
298.15 K	0.859
333.15 K	2.24

CC[n+]1ccn(C)c1.O=S(=O)([O-])C(F)(F)F + F[P-](F)(F)(F)(F)F.[Li+]
101 kPa, x1 = 1
Conditions	electrical conductivity [S/m]
288.15 K	0.605
298.15 K	0.859
333.15 K	2.24

C=C[n+]1ccn(CCCC)c1.N[C@@H](CO)C(=O)[O-] + O
101.3 kPa
Conditions	electrical conductivity [S/m]	viscosity [mPa·s]
293.15 K, x1 = 0.3	–	17
303.15 K, x1 = 0.1	1.37	6
303.15 K, x1 = 0.9	–	1832
323.15 K, x1 = 1	0.017	4800
333.15 K, x1 = 0.5	–	38.96
343.15 K, x1 = 1	–	1737
353.15 K, x1 = 0.1	–	4.35
353.15 K, x1 = 0.5	–	35.95
353.15 K, x1 = 1	–	1154

CC(=O)[O-].Cn1cc[n+](C)c1 + O
293.15 K, 101.3 kPa
Conditions	electrical conductivity [S/m]
x2 = 0	0.275
x2 = 0.0799	0.561
x2 = 0.1095	0.863
x2 = 0.2767	1.457
x2 = 0.4986	2.733
x2 = 0.5673	3.384
x2 = 0.7029	5.091
x2 = 0.7484	5.772
x2 = 0.8651	7.166
x2 = 0.8897	6.824
x2 = 0.9043	5.765
x2 = 0.9388	2.782
x2 = 0.9483	2
x2 = 0.9579	1.213
x2 = 0.9681	0.729

CCCCCCCCCCCCCC[P+](CCCCCC)(CCCCCC)CCCCCC.N#C[N-]C#N + O
viscosity [mPa·s], 100 kPa
Conditions	298.15 K	303.15 K
x1 = 0.5511	183	–
x1 = 0.8444	440	328

CCCCCCCCCC[n+]1ccn(C)c1.O=S(=O)([O-])C(F)(F)C(F)(F)C(F)(F)C(F)(F)F + O
298.15 K, 100 kPa
Conditions	electrical conductivity [S/m]
x1 = 1.66e-06	0.00043
x1 = 2.36e-06	0.00063
x1 = 3.06e-06	0.00086
x1 = 4.11e-06	0.00114
x1 = 5.17e-06	0.00146
x1 = 5.95e-06	0.00163
x1 = 6.65e-06	0.00186
x1 = 7.44e-06	0.00212
x1 = 8.14e-06	0.00237
x1 = 8.76e-06	0.00252
x1 = 9.8e-06	0.00283
x1 = 1.042e-05	0.003
x1 = 1.103e-05	0.00323
x1 = 1.164e-05	0.00343
x1 = 1.234e-05	0.00363
x1 = 1.323e-05	0.00389
x1 = 1.384e-05	0.00412
x1 = 1.445e-05	0.00429
x1 = 1.506e-05	0.00446
x1 = 1.586e-05	0.00466
x1 = 1.638e-05	0.00486
x1 = 1.699e-05	0.00506
x1 = 1.779e-05	0.00529
x1 = 1.831e-05	0.00541
x1 = 1.901e-05	0.00569
x1 = 1.971e-05	0.00578
x1 = 2.058e-05	0.00601
x1 = 2.171e-05	0.00621
x1 = 2.26e-05	0.00635
x1 = 2.33e-05	0.00649
x1 = 2.443e-05	0.00669
x1 = 2.512e-05	0.00678
x1 = 2.618e-05	0.00695
x1 = 2.714e-05	0.00703
x1 = 2.793e-05	0.0072
x1 = 2.907e-05	0.00729
x1 = 3.011e-05	0.0074
x1 = 3.116e-05	0.00746
x1 = 3.229e-05	0.00763
x1 = 3.361e-05	0.00777
x1 = 3.526e-05	0.00791
x1 = 3.649e-05	0.008
x1 = 3.815e-05	0.00814
x1 = 3.971e-05	0.00825
x1 = 4.103e-05	0.00831

CCCCCCCC[n+]1cccc(C)c1.F[B-](F)(F)F + O
298.15 K, 101 kPa
Conditions	electrical conductivity [S/m]
x1 = 4.685e-05	0.024
x1 = 0.0001279	0.063
x1 = 0.000272	0.127
x1 = 0.0003045	0.142
x1 = 0.0004197	0.19
x1 = 0.0005619	0.248
x1 = 0.0007023	0.308
x1 = 0.0007922	0.33
x1 = 0.0008948	0.377
x1 = 0.0009955	0.402
x1 = 0.00103	0.408
x1 = 0.001107	0.419
x1 = 0.001265	0.42
x1 = 0.00128	0.42
x1 = 0.001371	0.421
x1 = 0.001459	0.421
x1 = 0.001608	0.422
x1 = 0.00177	0.422
x1 = 0.001919	0.422
x1 = 0.002066	0.423
x1 = 0.002642	0.425

CCCCCC[n+]1ccn(C)c1.N[C@@H](CCC(=O)O)C(=O)[O-] + O
298.15 K, 100 kPa
Conditions	electrical conductivity [S/m]
x1 = 0.001278	0.2317
x1 = 0.002014	0.338
x1 = 0.00309	0.46
x1 = 0.004145	0.577
x1 = 0.004824	0.676
x1 = 0.00584	0.783
x1 = 0.007281	0.923
x1 = 0.008947	1.011
x1 = 0.01064	1.107
x1 = 0.01274	1.2
x1 = 0.01517	1.26
x1 = 0.01798	1.28

CC[NH+](C)CC.CS(=O)(=O)[O-] + O
Conditions	viscosity [mPa·s]
293.1 K, 101 kPa, x2 = 0.707	21
298.15 K, 100 kPa, x1 = 0.0967	4.51
298.15 K, 100 kPa, x1 = 0.4263	31.1
298.15 K, 100 kPa, x1 = 0.6771	69.7
303.15 K, 100 kPa, x1 = 0.0967	3.94
303.15 K, 100 kPa, x1 = 0.3246	16.6
303.15 K, 100 kPa, x1 = 0.6771	55.2
308.15 K, 100 kPa, x1 = 0.0155	1.04
308.15 K, 100 kPa, x1 = 0.5018	27.9
308.15 K, 100 kPa, x1 = 0.5783	34.2
308.15 K, 100 kPa, x1 = 0.7782	55.3
313.1 K, 101 kPa, x2 = 0.372	27.27
313.15 K, 100 kPa, x1 = 0.0571	1.79
313.15 K, 100 kPa, x1 = 0.3246	11.8
313.15 K, 100 kPa, x1 = 0.4263	18
318.15 K, 100 kPa, x1 = 0.1582	4.46
328.15 K, 100 kPa, x1 = 0.1582	3.46
328.15 K, 100 kPa, x1 = 0.206	4.6
328.15 K, 100 kPa, x1 = 0.5018	14.1
328.15 K, 100 kPa, x1 = 0.7782	25.4
333.1 K, 101 kPa, x2 = 0.372	13.95
333.1 K, 101 kPa, x2 = 0.507	9.98
333.15 K, 100 kPa, x1 = 0.0967	1.97
333.15 K, 100 kPa, x1 = 0.3246	6.65
333.15 K, 100 kPa, x1 = 0.5018	12.2
338.15 K, 100 kPa, x1 = 0.0571	1.11
338.15 K, 100 kPa, x1 = 0.3246	5.84
338.15 K, 100 kPa, x1 = 0.4263	8.21
338.15 K, 100 kPa, x1 = 0.5018	10.3
338.15 K, 100 kPa, x1 = 0.5783	12.2
338.15 K, 100 kPa, x1 = 0.6771	15.3
353.1 K, 101 kPa, x2 = 0.449	6.83
353.1 K, 101 kPa, x2 = 0.624	4.58

CC[n+]1ccn(C)c1.O=S(=O)([O-])C(F)(F)F + O
101 kPa
Conditions	electrical conductivity [S/m]	viscosity [mPa·s]
293.15 K, x1 = 0.004	–	1.07
293.15 K, x1 = 0.029	–	1.67
293.15 K, x1 = 0.041	–	2.01
293.15 K, x1 = 0.463	–	13.6
297.45 K, x2 = 0.304	1.17	–
298.15 K, x1 = 0.005	1.4	0.99
298.15 K, x1 = 0.012	2.3	1.11
298.15 K, x1 = 0.017	–	1.23
298.15 K, x1 = 0.041	–	1.78
298.15 K, x1 = 0.064	4.4	2.17
298.15 K, x1 = 0.137	4.6	3.71
303.15 K, x1 = 0.008	–	0.92
303.15 K, x1 = 0.017	–	1.09
303.15 K, x1 = 0.137	–	3.27
303.15 K, x1 = 0.391	–	8.23
303.65 K, x2 = 0.304	1.46	–
305.35 K, x2 = 0.304	1.58	–
313.15 K, x1 = 0.004	–	0.7
313.15 K, x1 = 0.017	3.9	0.89
313.15 K, x1 = 0.029	5.1	1.05
313.15 K, x1 = 0.137	6.3	2.58

O=S(=O)([O-])C(F)(F)F.[Li+] + O
Conditions	electrical conductivity, 298.1 K [S/m]	electrical conductivity, 298.15 K [S/m]	electrical conductivity, 308.15 K [S/m]	electrical conductivity, 318.15 K [S/m]	electrical conductivity, 328.15 K [S/m]	viscosity, 298.15 K [mPa·s]	viscosity, 308.15 K [mPa·s]	viscosity, 318.15 K [mPa·s]	viscosity, 328.15 K [mPa·s]
100 kPa, x1 = 0.1122	–	7.3	8.94	10.9	12.7	3.7	2.9	2.27	1.85
100 kPa, x1 = 0.1783	–	4.63	5.73	6.99	8.17	9.2	6.9	5.3	4.2
100 kPa, x1 = 0.2388	–	2.6	3.26	4.06	4.89	21.9	16	11.1	8.6
100 kPa, x1 = 0.2541	–	1.98	2.53	3.16	3.92	31.8	22.6	15.9	12.2
100 kPa, x1 = 0.2743	–	1.56	2.04	2.59	3.2	47.2	32.9	23.9	18.1
101 kPa, x1 = 0.01944	4.69	–	–	–	–	–	–	–	–
101 kPa, x1 = 0.1527	4.69	–	–	–	–	–	–	–	–
101 kPa, x1 = 0.2649	1.34	–	–	–	–	–	–	–	–
101 kPa, x1 = 0.3106	0.51	–	–	–	–	–	–	–	–
